Assay results reported in patent EP0585371B1, “AROMATIC OLIGOMERIC COMPOUNDS USEFUL AS MIMICS OF BIOACTIVE MACROMOLECULES” (RHONE-POULENC RORER INTERNATIONAL (HOLDINGS) INC., priority 1991, dated 1992).
Where “and” joins values, the source holds several entries; their conditions need not be identical. Equal values may be shown once. Read-outs that look alike come from different tables or passages of the source.

Key:
normal pooled plasma = assay: Anticoagulation activity, Activated Partial Thromboplastin Time (APTT) test; settings: concentration required to double clotting time
Protocol: The following test measures anticoagulant activity of the oligomers of the present invention and utilizes the Activated Partial Thromboplastin Time (APTT) test, with the following procedures.
To an assay cuvette is added 100 µl of normal pooled plasma (George King Biomedical Inc., Kansas) and […] of a solution containing the test compound in aqueous 50 mM Tris hydrochloride at pH 7.5 (0.2 mg of sample in one ml buffer). The sample is placed in a MLA coagulation timer which automatically maintains the sample at 37°C for 2.5 minutes, 100 µl of actin activated cephaloplastin reagent is injected, kept 5 minutes, 100 µl of 35 mM CaCI is injected, and clot formation is determined photometrically and the clotting time recorded. Each example is examined at a variety of concentrations, generally from about .025 mg/ml to about 1 mg/ml, and the clotting times are graphed as a function of concentration. From the graphic results, the concentration required to double clotting time (ICDCT) is calculated by linear interpolation.

[1] = target: T1, Human neutrophil elastase (Homo sapiens, UniProt P08246); assay: Human Granulocyte Elastase Inhibition Assay; type: biochemical; settings: substrate S-2484, pH 8.3
T1 construct: purchased ICN Biochemical
T1 sequence (P08246 30-267): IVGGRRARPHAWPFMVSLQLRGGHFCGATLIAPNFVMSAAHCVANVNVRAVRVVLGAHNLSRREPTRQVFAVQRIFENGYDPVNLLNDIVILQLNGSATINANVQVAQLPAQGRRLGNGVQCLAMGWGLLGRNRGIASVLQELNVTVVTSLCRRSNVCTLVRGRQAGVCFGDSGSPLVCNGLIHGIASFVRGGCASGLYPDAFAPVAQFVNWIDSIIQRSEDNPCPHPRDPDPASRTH
Protocol: The Human Granulocyte Elastase Inhibition assay is a standard test procedure and is essentially that of Kramps, et al., "L-Pyroglutamyl-L-prolyl-L-valine-p-nitroanilide, a highly specific substrate for granulocyte elastase", Scand. J. clin. Lab. Invest. 43, 427-432 (1983).
A stock solution of 8.0 mM L-pyroglutamyl-L-prolyl-L-valine-p-nitroanilide (S-2484, obtained from Kabi) in dimethylsulfoxide is diluted to 2.0 mM in 0.03 M Tris buffer, pH 8.3, to give the working substrate solution. Human neutrophil elastase (obtained from ICN Biochemical) is diluted in the same buffer to 1 unit/ml to give the working enzyme solution.
A control assay is run in which a solution of 10 µl of buffer and 10µl of working enzyme solution is incubated at room temperature for 1 minute and 330 µl of buffer and 50 µl of working substrate solution is then added. The increase in absorbance (ΔOD/min) at 405 nm is measured.
In the experimental assay 10µl of a solution containing a compound of the present invention (in concentrations ranging from 1 mg/ml to 0.1 µg/ml), or other inhibitor to be tested, in buffer is substituted for the 10 µl of buffer with which the enzyme is incubated in the control assay and the procedure followed as for the control assay above. The ΔOD/min is measured and the result expressed as percentage inhibition for the given concentration of inhibitor as compared with the ΔOD/min for the control. Percent inhibition versus concentration of compound of the present invention or other inhibitor is plotted and the data extrapolated to give the concentration required for 50% inhibition of the enzyme (IC50).

[2] = test system: Vascular smooth muscle cells (VSMC); assay: Smooth Muscle Cell DNA Synthesis Assay (3H-thymidine incorporation in response to PDGF); type: cell-based, swine; settings: inhibition of incorporation of 3H-thymidine in response to PDGF (9 ng/ml)
Protocol: Vascular smooth muscle cells (VSMC) are isolated from swine coronaries obtained from swine hearts (Hatfield Meat Packing, Hatfield, PA) by enzyme dissociation as described by Gunther, et al., in J. Cell. Biol. 92, 289 (1982). Hyaluronidase (0.5 mg/ml) is added to facilitate dispersal. Cells are maintained in Earle's modified minimal essential medium (EMEM) with D-valine substituted for L-valine, supplemented with Hepes (10 mM), fetal bovine serum (FBS) (10%), penicillin (100 U/ml) and streptomycin ( 100 µg/ml).
The VSMC (passage 2) are plated at a density of 3 x 10^4 /cm2 (1x10^4 cells/well of 96 well tray) and after 48 hours of normal growth are arrested by replacement of above media with serum-free media for 48 hours consisting of: EMEM: Hams F12 (1:1), insulin, 5 µg/ml; transferrin, 35 µg/ml; selenite, 5 ng/ml; antibiotics and buffer (as above). The oligomer of the present invention to be tested (.01-10 µM) is added 2 hours prior to addition of porcine platelet derived growth factor (Research and Diagonostics, Minneapolis, MN), or FBS,in fresh serum-free media. Twenty-four hours later the oligomers are again added preceding addition of growth factors by 2 hours. […]
The VSMC are pulsed (5 hours) with ^3H-thymidine (Amersham, Arlington Heights, IL) (1 µCi/well of a 96 well plate; 42 Ci/mmole) added 15-18 hours after the last dose of growth factor. DNA synthesis is determined in NaOH extraction of ethanol/ether fixed cells as reported by Nemecek, et al., PNAS 83, 674 (1986). The cells are washed with phosphate bufferred saline (200 µl/well of 96-well tray. The cells are incubated with trichloroacetic acid (TCA) (10%, 200 ul) for 5 minutes to remove cytoplasmic label. After a rapid wash with cold 10% TCA, cells are fixed with ethanol/ether (2:1, 200 µl/well 5 min) and dried. The labeled DNA is extracted with 0.5 N NaOH (200 µl/well 30 min incubation, room temperature). The extracted DNA is neutralized (0.5 N HCI) and counted by liquid scintillation.
Statistical evaluation is as reported by Bilder, et al., Am. […] IC50 values are calculated by linear regression (RPL of RS1) from % inhibition of a minimum of 3 log fold dilutions of oligomers in the presence of PDGF (9 ng/ml) which give 70-80% of a maximal PDGF response. […] Percent inhibition is calculated by comparing the effect of PDGF alone (vehicle treated cultures + PDGF minus vehicle treated cultures without PDGF) to the effect of oligomers (oligomer + PDGF minus oligomer alone) and divided by the effect of PDGF times 100. i.e., = % inhibition = ((ΔVehicle + PDGF) - (Δoligomer + PDGF)/(Δvehicle + PDGF)) x 100.

vWF Binding to Gp1b = target: T2, vWF Binding to Gp1b (Homo sapiens, UniProt P04275+P07359); assay: Inhibition of ristocetin-induced binding of 125I-vWF to formalin-fixed platelets; settings: at 100 µg/ml; ristocetin 1.0 mg/ml
T2 construct: multimeric vWF (isolated from human plasma cryoprecipitate); Formalin-fixed platelets, prepared according to the method of MacFarlane; from tissue; host or cells: vWF from human plasma cryoprecipitate; GPIb on formalin-fixed platelets
T2 sequence (P04275 764-2813 limits assumed): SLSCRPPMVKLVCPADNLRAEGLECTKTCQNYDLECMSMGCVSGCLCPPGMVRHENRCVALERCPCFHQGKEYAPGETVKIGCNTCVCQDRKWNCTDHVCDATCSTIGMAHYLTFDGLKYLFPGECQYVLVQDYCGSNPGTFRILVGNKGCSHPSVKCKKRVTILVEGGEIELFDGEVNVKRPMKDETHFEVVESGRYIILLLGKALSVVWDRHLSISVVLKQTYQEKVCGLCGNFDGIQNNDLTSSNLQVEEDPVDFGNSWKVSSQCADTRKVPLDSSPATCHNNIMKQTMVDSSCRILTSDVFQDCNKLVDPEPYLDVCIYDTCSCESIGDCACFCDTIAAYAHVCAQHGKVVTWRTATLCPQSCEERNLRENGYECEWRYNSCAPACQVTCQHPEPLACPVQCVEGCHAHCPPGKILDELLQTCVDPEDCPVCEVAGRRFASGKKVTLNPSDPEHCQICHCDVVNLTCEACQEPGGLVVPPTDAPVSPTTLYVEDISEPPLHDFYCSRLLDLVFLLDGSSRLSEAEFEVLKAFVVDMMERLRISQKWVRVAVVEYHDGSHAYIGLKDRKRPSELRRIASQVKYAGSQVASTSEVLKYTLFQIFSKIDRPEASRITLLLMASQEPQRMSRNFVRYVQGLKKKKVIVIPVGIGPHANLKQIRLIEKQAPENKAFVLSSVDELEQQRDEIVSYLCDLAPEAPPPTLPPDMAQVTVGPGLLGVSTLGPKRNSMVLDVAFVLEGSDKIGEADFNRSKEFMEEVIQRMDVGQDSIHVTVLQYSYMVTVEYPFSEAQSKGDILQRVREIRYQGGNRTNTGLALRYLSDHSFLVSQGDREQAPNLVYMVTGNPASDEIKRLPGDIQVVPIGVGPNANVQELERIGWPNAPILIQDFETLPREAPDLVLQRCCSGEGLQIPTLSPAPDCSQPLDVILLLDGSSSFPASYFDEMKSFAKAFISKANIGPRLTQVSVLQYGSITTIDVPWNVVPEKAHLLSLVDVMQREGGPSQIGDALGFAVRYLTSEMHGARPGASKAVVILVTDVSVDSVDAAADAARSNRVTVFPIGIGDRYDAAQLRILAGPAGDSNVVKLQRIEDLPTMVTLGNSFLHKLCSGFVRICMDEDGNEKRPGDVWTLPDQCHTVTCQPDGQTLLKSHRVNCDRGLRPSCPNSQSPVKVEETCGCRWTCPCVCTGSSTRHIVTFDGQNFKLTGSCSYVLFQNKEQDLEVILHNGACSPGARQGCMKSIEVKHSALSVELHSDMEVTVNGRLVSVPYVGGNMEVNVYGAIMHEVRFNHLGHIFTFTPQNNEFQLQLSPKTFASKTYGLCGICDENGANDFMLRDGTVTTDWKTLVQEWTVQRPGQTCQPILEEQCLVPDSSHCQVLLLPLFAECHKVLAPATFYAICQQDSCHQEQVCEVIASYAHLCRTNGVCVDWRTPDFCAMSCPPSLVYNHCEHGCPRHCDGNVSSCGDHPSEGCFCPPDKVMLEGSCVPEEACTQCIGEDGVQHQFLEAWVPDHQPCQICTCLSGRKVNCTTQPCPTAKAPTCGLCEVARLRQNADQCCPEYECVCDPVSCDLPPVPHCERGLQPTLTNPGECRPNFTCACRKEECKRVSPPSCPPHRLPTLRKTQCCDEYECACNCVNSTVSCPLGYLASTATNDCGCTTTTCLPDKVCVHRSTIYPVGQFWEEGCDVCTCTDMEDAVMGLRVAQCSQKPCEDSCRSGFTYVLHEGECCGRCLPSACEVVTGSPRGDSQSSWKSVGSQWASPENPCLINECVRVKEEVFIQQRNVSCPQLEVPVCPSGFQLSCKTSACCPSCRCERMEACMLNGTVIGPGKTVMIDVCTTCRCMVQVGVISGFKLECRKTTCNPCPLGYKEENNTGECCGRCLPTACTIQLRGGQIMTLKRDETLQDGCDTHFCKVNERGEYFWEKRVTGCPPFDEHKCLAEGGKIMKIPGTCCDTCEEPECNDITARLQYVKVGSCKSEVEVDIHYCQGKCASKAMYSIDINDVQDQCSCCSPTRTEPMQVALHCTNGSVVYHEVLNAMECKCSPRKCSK
T2 sequence (P07359 17-652): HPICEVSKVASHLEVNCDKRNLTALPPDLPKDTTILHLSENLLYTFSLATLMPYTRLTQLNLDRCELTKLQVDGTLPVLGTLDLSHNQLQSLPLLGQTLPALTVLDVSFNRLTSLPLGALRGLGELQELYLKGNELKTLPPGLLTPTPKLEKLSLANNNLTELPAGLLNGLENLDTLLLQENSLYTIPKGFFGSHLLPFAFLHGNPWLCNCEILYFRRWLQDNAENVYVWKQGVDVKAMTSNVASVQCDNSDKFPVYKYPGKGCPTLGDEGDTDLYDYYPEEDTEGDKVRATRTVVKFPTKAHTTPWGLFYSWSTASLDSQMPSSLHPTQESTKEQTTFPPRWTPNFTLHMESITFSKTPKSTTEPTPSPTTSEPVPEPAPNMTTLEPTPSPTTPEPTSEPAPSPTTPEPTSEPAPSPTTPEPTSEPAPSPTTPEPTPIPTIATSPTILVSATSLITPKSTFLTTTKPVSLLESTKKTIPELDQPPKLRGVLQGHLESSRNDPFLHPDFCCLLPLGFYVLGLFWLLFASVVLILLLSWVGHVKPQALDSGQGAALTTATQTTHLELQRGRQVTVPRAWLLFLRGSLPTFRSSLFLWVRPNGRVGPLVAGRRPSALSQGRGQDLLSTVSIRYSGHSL
Protocol: The binding of vWf (vonWillebrand Factor) to glycoprotein Ib is measured in one of two experimental systems, in the presence of either ristocetin or botrocetin as modulators of binding. The ristocetin modulated binding is described herein.
Formalin-fixed platelets, prepared according to the method of MacFarlane, D. et al., Thromb. Diath. Haemorrh. 34, 306-308 (1975), were preincubated at room temperature for 15 minutes with specified dilutions of oligomers according to the present invention. Ristocetin, (Sigma, St. Louis, MO) diluted to a final concentration of 1.0 mg/ml, and ^125I-labelled multimeric vWF (isolated from human plasma cryoprecipitate according to the method of Fulcher, C.A. et al. Proc. Natl. Acad. Sci. USA, 79, 1648-1652 (1982), and labelled according to the method of Fraker, P.J. et al. Biochem. Biophys. Res. Commun., 80, 849-857 (1978)) were then added to the incubation mixture, and the amount of ^125I- vWF bound to the platelets was determined. ^125I-vWF binding to the platelets was referenced against 100% binding which was defined as the amount of ^125I- vWF bound in the absence of added oligomer compound. The method for measuring vWF binding is reported in detail in Ruggeri et al., J. Clin. Invest., 72, 1-12, (1983), herein incorporated by reference.

With `O=C(O)COc1cc(Cc2cc(OCc3ccccc3)ccc2OCC(=O)O)c(O)cc1CCc1cc(O)c(Cc2cc(OCc3ccccc3)ccc2OCC(=O)O)cc1OCC(=O)O` [Ex 20, 1,2-bis-[[2-carboxymethyloxy-5-hydroxy-4-(5-benzyloxy-2-carboxymethyloxy)benzyl]phenyl]ethane] the “APTT ICDCT” value (normal pooled plasma) was 555 µg/mL and the IC50 [1] was 780 nM and 779 nM.

For `CCc1cc(OCC(=O)O)cc(Cc2cc(OCC(=O)O)cc(Cc3cc(OCC(=O)O)cc(Cc4cc(OCC(=O)O)cc(Cc5cc(OCC(=O)O)cc(Cc6cc(OCC(=O)O)cc(Cc7cc(OCC(=O)O)cc(Cc8cc(OCC(=O)O)ccc8OC)c7OC)c6OC)c5OC)c4OC)c3OC)c2OC)c1OC` [Ex 23, 5-[3-[3-[3-[3-[3-[3-[[5-carboxymethyloxy-2-methoxy]benzyl]-[5-carboxymethyloxy-2-methoxy]benzyl]-[5-carboxymethyloxy-2-methoxy]benzyl]-[5-carboxymethyloxy-2-methoxy]benzyl]-[5-carboxymethyloxy-2-methoxy]benzyl]-[5-carboxymethyloxy-2-methoxy]benzyl]-[5-carboxymethyloxy-2-methoxy]benzyl]-3-ethyl-4-methoxyphenoxyacetic acid], the “APTT ICDCT” value (normal pooled plasma) was 300 µg/mL and the IC50 [2] was 300 nM.

`O=C(O)CCc1cc(Cc2cc(O)ccc2CCC(=O)O)c(O)cc1CCc1cc(O)c(Cc2cc(O)ccc2CCC(=O)O)cc1CCC(=O)O` [Ex 3, 1,2-bis-[2-(2-carboxyethyl)-4-[2-(2-carboxyethyl)-5-hydroxybenzyl]-5-hydroxyphenyl]ethane] was tested, and the “APTT ICDCT” value (normal pooled plasma) was 700 µg/mL, the inhibition at 100 µg/mL (vWF Binding to Gp1b) was 21% and the IC50 ([1]; read-out: IC50 (converted)) was over 1400 nM.

In the case of `CCc1cc(OCC(=O)O)cc(Cc2cc(OCC(=O)O)cc(Cc3cc(OCC(=O)O)cc(Cc4cc(OCC(=O)O)ccc4OC)c3OC)c2OC)c1OC` [Ex 22, 5-[3-[3-[[5-carboxymethyloxy-2-methoxy]benzyl]-[5-carboxymethyloxy-2-methoxy]benzyl]-[5-carboxymethyloxy-2-methoxy]benzyl]-3-ethyl-4-methoxyphenoxyacetic acid], the “APTT ICDCT” value (normal pooled plasma) is reported as over 315 µg/mL and the IC50 ([1]; unit printed in the cell of the nM column, read-out: IC50 (converted)) is reported as over 3e+06 nM.

For `O=C(O)COc1cc(Cc2cc(O)ccc2OCC(=O)O)c(O)cc1CCc1cc(O)c(Cc2cc(O)ccc2OCC(=O)O)cc1OCC(=O)O` [Ex 17, 1 ,2-bis-[[2-carboxymethyloxy-5-hydroxy-4-(5-hydroxy-2-carboxymethyloxy)benzyl]phenyl]ethane], the “APTT ICDCT” value (normal pooled plasma) was 580 µg/mL and the IC50 ([1]; read-out: IC50 (converted)) was 135 nM and 134 nM.

`O=C(O)COc1cc(Cc2cc(OCc3ccccc3)c(Cc3cc(OCc4ccccc4)c(Cc4cc(O)ccc4OCC(=O)O)cc3OCC(=O)O)cc2OCC(=O)O)c(OCc2ccccc2)cc1CO` [Ex 16, 4-benzyloxy-5-[4-[4-[[2-carboxymethyloxy-5-hydroxy]benzyl]-[5-benzyloxy-2-carboxymethyloxy]benzyl]-[5-benzyloxy-2-carboxymethyloxy]benzyl]-2-hydroxymethylphenoxyacetic acid] was tested, and the “APTT ICDCT” value (normal pooled plasma) was 360 µg/mL and the IC50 ([1]; read-out: IC50 (converted)) was 330 nM and 327 nM.

For `O=C(O)COc1cc(Cc2cc(OCc3ccccc3)c(Cc3cc(OCc4ccccc4)c(Cc4cc(OCc5ccccc5)c(Cc5cc(OCc6ccccc6)c(Cc6cc(O)ccc6OCC(=O)O)cc5OCC(=O)O)cc4OCC(=O)O)cc3OCC(=O)O)cc2OCC(=O)O)c(OCc2ccccc2)cc1CO` [Ex 19, 4-benzyloxy-5-[4-[4-[4-[4-[[2-carboxymethyloxy-5-hydroxy]benzyl]-[5-benzyloxy-2-carboxymethyloxy]benzyl]-[5-benzyloxy-2-carboxymethyloxy]benzyl]-[5-benzyloxy-2-carboxymethyloxy]benzyl]-[5-benzyloxy-2-carboxymethyloxy]benzyl]-2-hydroxymethylphenoxyacetic acid], the “APTT ICDCT” value (normal pooled plasma) was 345 µg/mL and the IC50 [2] was 300 nM.
